Activity calls are given as the source filed them. No cut-off for these calls is given here.
What was measured:
[1] = biological target: T1, Alpha-1A adrenergic receptor (Homo sapiens) (UniProt P35348); experiment: Antagonist activity at human adrenergic alpha1A receptor expressed in CHO cells assessed as inhibition of epinephrine-induced calcium flux by fluorimetric method; assay type: functional, cell-based
T1 sequence (whole entry): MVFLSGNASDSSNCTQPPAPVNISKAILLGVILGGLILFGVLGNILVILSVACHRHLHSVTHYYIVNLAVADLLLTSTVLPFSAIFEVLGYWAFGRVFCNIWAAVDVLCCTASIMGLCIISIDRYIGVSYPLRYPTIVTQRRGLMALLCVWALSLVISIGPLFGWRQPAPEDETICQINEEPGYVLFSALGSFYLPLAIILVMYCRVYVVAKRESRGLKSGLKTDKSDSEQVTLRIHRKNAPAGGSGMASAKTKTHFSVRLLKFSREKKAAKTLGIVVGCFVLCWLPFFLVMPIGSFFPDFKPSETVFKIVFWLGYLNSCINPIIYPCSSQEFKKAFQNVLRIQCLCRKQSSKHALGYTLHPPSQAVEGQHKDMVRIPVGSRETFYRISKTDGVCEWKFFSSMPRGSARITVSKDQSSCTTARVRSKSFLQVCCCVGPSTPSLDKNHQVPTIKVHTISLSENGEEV

Rattus norvegicus [2] = organism: Rattus norvegicus; experiment: animal or person; conditions: Sprague-Dawley, ip, read-out: MED
Description: Antipsychotic activity in ip dosed Sprague-Dawley rat assessed as reduction in PCP-induced hyper-locomotion pretreated for 60 mins followed by PCP addition measured for 30 mins starting 15 min after rat reintroduction to auto-tracks

Rattus norvegicus [3] = experiment: Effect on failure incidence during conditioned avoidance response test in Sprague-Dawley rat at 6 mg/kg, ip administered 60 mins prior to testing; assay type: ADME, organism-based; conditions: in vivo, 1 h
Rattus norvegicus [4] = organism: Rattus norvegicus; experiment: animal or person; conditions: Sprague-Dawley, ip, read-out: MED; remark: listed apart in the source
Description: Reversal of PCP-induced cognitive impairment in ip dosed Sprague-Dawley rat assessed as reduction in time spent exploring novel object over familiar object pretreated for 60 mins followed by PCP addition by novel object recognition assay

Rattus norvegicus [5] = experiment: Reversal of ketamine-induced working social withdrawal in Sprague-Dawley rat at 1 mg/kg, ip pretreated for 60 mins followed by ketamine administration; assay type: functional, organism-based
Rattus norvegicus [6] = organism: Rattus norvegicus; experiment: animal or person; conditions: Sprague-Dawley, ip, read-out: MED; remark: listed apart in the source
Description: Antipsychotic activity in ip dosed Sprague-Dawley rat assessed as suppression of avoidance behavior by avoiding foot shock administered 60 mins prior to test by conditioned avoidance response test

[7] = Toxicity in ip dosed Sprague-Dawley rat assessed as sedation pretreated for 60 mins followed by PCP addition measured for 30 mins starting 15 min after rat reintroduction to auto-tracks; assay type: organism-based; conditions: in vivo
Rattus norvegicus [8] = organism: Rattus norvegicus; experiment: animal or person; conditions: Sprague-Dawley, ip, read-out: MED; remark: listed apart in the source
Description: Reversal of ketamine-induced working social withdrawal in ip dosed Sprague-Dawley rat pretreated for 60 mins followed by ketamine administration

Rattus norvegicus [9] = experiment: Effect on failure incidence during conditioned avoidance response test in Sprague-Dawley rat at 0.3 mg/kg, ip administered 60 mins prior to testing; assay type: ADME, organism-based; conditions: in vivo, 1 h
[10] = Drug level in Wistar rat plasma at 3 mg/kg, ip measured after 15 mins by LC-MS/MS analysis; assay type: ADME, organism-based
[11] = Drug level in Wistar rat brain at 3 mg/kg, ip measured after 60 mins by LC-MS/MS analysis; assay type: ADME, organism-based; conditions: read-out: Drug uptake
[12] = biological target: T2, 5-hydroxytryptamine receptor 2A (Homo sapiens, UniProt P28223); experiment: biochemical; assay type: cell-based, CHO-K1
T2 sequence (P28223 whole entry): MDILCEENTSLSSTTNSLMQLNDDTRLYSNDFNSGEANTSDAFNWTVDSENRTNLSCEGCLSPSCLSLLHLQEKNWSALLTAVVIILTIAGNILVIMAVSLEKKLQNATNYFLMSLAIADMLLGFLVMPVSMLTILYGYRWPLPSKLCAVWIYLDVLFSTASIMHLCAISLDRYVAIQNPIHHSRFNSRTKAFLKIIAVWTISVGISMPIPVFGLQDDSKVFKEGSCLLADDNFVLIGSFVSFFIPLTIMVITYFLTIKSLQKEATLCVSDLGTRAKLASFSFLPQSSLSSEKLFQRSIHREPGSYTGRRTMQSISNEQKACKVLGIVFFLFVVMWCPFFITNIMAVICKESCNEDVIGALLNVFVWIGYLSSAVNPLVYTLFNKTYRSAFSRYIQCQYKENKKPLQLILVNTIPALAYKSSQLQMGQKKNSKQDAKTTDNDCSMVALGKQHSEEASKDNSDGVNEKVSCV

[13] = Drug level in Wistar rat brain at 3 mg/kg, ip measured after 15 mins by LC-MS/MS analysis; assay type: ADME, organism-based; conditions: read-out: Drug uptake
[14] = Ratio of drug level in brain to plasma in Wistar rat at 3 mg/kg, ip measured after 60 mins by LC-MS/MS analysis; assay type: ADME, organism-based; conditions: read-out: BPR
[15] = biological target: D(3) dopamine receptor (Homo sapiens) (UniProt P35462); experiment: Antagonist activity at human D3R expressed in CHO-K1 cells assessed as inhibition of dopamine induced cAMP accumulation at 10^-6 M after 30 mins by HTRF method; assay type: functional, cell-based
Chain of D(3) dopamine receptor (Homo sapiens) (P35462 whole entry): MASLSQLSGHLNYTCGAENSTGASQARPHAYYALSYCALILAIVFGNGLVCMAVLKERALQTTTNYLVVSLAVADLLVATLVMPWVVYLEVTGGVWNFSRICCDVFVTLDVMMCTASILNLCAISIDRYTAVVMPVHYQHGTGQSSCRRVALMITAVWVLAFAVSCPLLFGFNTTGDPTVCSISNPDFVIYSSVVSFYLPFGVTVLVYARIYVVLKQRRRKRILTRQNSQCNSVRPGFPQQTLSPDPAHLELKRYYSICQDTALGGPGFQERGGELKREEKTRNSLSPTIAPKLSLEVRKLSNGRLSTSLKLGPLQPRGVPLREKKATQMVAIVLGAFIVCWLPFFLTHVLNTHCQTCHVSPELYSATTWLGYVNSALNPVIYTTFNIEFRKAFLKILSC

[16] = Drug level in Wistar rat plasma at 3 mg/kg, ip measured after 60 mins by LC-MS/MS analysis; assay type: ADME, organism-based
[17] = Ratio of drug level in brain to plasma in Wistar rat at 3 mg/kg, ip measured after 30 mins by LC-MS/MS analysis; assay type: ADME, organism-based; conditions: read-out: BPR
[18] = biological target: T3, 5-hydroxytryptamine receptor 1A (Homo sapiens, UniProt P08908); experiment: Partial agonist activity at human 5-HT1AR expressed in CHO-K1 cells assessed as increase in cAMP accumulation by chemiluminescence-based assay; assay type: functional, cell-based
T3 sequence (P08908 whole entry): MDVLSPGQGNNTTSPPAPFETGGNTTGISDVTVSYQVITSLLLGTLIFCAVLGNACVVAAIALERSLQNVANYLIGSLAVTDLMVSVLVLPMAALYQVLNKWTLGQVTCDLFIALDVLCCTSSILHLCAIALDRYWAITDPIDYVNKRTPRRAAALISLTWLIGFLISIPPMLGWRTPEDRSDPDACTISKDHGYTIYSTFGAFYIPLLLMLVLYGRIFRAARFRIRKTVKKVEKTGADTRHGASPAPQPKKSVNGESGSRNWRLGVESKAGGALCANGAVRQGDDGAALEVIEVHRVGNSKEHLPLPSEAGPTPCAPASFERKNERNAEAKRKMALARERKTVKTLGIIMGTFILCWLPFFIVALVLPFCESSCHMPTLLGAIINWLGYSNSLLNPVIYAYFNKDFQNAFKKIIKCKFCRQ

[19] = Drug level in Wistar rat brain at 3 mg/kg, ip measured after 30 mins by LC-MS/MS analysis; assay type: ADME, organism-based; conditions: read-out: Drug uptake
[20] = Ratio of drug level in brain to plasma in Wistar rat at 3 mg/kg, ip measured after 15 mins by LC-MS/MS analysis; assay type: ADME, organism-based; conditions: read-out: BPR
[21] = biological target: T4, 5-hydroxytryptamine receptor 7 (Homo sapiens, UniProt P34969); experiment: Antagonist activity at human 5-HT7R expressed in CHO-K1 cells assessed as inhibition of serotonin-induced cAMP accumulation after 30 mins by chemiluminescence-based assay; assay type: functional, cell-based
T4 sequence (P34969 whole entry): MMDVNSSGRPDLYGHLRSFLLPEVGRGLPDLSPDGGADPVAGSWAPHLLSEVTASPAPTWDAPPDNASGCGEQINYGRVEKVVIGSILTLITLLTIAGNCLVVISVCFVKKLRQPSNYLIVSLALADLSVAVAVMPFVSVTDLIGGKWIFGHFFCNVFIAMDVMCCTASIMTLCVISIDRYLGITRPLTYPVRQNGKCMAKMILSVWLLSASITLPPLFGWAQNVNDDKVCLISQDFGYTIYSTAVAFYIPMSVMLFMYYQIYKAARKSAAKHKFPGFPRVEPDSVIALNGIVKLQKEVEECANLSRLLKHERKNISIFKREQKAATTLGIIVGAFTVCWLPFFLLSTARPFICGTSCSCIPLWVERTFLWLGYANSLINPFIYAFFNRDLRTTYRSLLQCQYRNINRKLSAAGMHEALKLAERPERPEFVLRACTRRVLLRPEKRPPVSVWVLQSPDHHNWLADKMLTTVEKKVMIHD

[22] = biological target: T5, 5-hydroxytryptamine receptor 1A (Homo sapiens) (UniProt P08908); experiment: Partial agonist activity at human 5-HT1AR expressed in CHO-K1 cells assessed as increase in cAMP accumulation at 10^-6 M by chemiluminescence-based assay relative to serotonin; assay type: functional, cell-based
T5 sequence (whole entry): T3 sequence (P08908 whole entry)

[23] = biological target: D(2) dopamine receptor (Homo sapiens) (UniProt P14416); experiment: Antagonist activity at human D2LR expressed in CHO-K1 cells assessed as inhibition of dopamine-induced calcium flux by fluorimetric method; assay type: functional, cell-based
Chain of D(2) dopamine receptor (Homo sapiens) (P14416 whole entry): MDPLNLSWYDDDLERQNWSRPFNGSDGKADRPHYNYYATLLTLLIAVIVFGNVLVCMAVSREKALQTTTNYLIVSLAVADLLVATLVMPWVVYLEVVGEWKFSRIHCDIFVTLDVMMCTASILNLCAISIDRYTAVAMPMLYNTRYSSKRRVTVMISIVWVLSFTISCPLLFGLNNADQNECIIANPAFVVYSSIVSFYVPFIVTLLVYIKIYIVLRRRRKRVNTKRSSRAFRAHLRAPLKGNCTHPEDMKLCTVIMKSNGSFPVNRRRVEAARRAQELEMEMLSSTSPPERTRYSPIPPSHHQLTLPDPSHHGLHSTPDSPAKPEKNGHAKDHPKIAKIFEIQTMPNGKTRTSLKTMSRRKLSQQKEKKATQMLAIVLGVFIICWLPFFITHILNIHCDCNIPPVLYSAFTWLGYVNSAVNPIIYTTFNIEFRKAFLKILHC

[24] = biological target: T2, 5-hydroxytryptamine receptor 2A; experiment: Antagonist activity at human 5-HT2AR expressed in HEK293 cells assessed as inhibition of serotonin-induced calcium flux after 30 mins by HTRF method; assay type: functional, cell-based
Rattus norvegicus [25] = experiment: Antipsychotic activity in Sprague-Dawley rat assessed as reduction in PCP-induced hyper-locomotion at 1 to 3 mg/kg, ip pretreated for 60 mins followed by PCP addition measured for 30 mins starting 15 min after rat reintroduction to auto-tracks; assay type: functional, organism-based
[26] = biological target: T2, 5-hydroxytryptamine receptor 2A; experiment: Antagonist activity at human 5-HT2AR expressed in HEK293 cells assessed as inhibition of serotonin-induced calcium flux at 10^-6 M after 30 mins by HTRF method; assay type: functional, cell-based
[27] = biological target: T6, 5-hydroxytryptamine receptor 6 (Homo sapiens, UniProt P50406); experiment: Antagonist activity at human 5-HT6R expressed in CHO-K1 cells assessed as inhibition of serotonin-induced cAMP accumulation at 10^-6 M after 30 mins by chemiluminescence-based assay; assay type: functional, cell-based
T6 sequence (P50406 whole entry): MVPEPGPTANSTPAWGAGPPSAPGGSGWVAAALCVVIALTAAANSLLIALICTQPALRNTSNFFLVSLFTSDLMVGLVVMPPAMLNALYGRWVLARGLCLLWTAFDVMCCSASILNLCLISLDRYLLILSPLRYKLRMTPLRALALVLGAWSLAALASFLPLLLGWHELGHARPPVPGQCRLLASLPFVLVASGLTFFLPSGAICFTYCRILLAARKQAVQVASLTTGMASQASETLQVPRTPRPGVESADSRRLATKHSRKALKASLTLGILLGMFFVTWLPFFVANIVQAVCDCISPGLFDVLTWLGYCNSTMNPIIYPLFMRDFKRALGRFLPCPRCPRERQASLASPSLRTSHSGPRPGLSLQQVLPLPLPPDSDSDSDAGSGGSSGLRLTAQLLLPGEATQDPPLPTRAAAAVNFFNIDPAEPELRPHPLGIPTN

[28] = biological target: D(2) dopamine receptor (Homo sapiens) (UniProt P14416); experiment: Antagonist activity at human D2LR expressed in CHO-K1 cells assessed as inhibition of dopamine-induced calcium flux at 10^-6 M by fluorimetric method; assay type: functional, cell-based
[29] = biological target: T3, 5-hydroxytryptamine receptor 1A; experiment: biochemical
Description: Displacement of [3H]-8-OH-DPAT from human 5-HT1AR expressed in HEK293 cell membranes after 1 hr by microbeta counting method

[30] = Drug level in Wistar rat plasma at 3 mg/kg, ip measured after 30 mins by LC-MS/MS analysis; assay type: ADME, organism-based
[31] = biological target: T4, 5-hydroxytryptamine receptor 7; experiment: Antagonist activity at human 5-HT7R expressed in CHO-K1 cells assessed as inhibition of serotonin-induced cAMP accumulation at 10^-6 M after 30 mins by chemiluminescence-based assay; assay type: functional, cell-based
[32] = biological target: T4, 5-hydroxytryptamine receptor 7; experiment: biochemical
Description: Displacement of [3H]-5-CT from human 5-HT7R expressed in HEK293 cell membranes after 1 hr at 37 degC by microbeta counting method

Rattus norvegicus [33] = experiment: Toxicity in Wistar rat assessed as increase in prolactin level at 3 mg/kg, po after 60 mins by ELISA; assay type: organism-based; conditions: in vivo, 1 h
[34] = Effect on failure incidence during conditioned avoidance response test in ip dosed Sprague-Dawley rat administered 60 mins prior to testing; assay type: ADME, organism-based; conditions: in vivo
[35] = biological target: T6, 5-hydroxytryptamine receptor 6; experiment: biochemical
Description: Displacement of [3H]-LSD from human 5-HT6R expressed in HEK293 cell membranes after 1 hr at 37 degC by microbeta counting method

Rattus norvegicus [36] = experiment: Toxicity in Sprague-Dawley rat assessed as induction of catalepsy at 30 mg/kg, ip measured every 30 mins up to 240 mins by bar test; assay type: organism-based; conditions: in vivo
[37] = biological target: T5, 5-hydroxytryptamine receptor 1A (Homo sapiens); conditions: CHO-K1, 10^-7 M
Rattus norvegicus [38] = experiment: Reversal of ketamine-induced working social withdrawal in Sprague-Dawley rat at 0.1 mg/kg, ip pretreated for 60 mins followed by ketamine administration; assay type: functional, organism-based
[39] = (§1) Toxicity in ip dosed Sprague-Dawley rat assessed as induction of catalepsy measured every 30 mins up to 240 mins by bar test; assay type: organism-based; conditions: Sprague-Dawley, in vivo
Rattus norvegicus [40] = experiment: as §1; assay type: organism-based; conditions: in vivo
Rattus norvegicus [41] = experiment: Reversal of PCP-induced cognitive impairment in Sprague-Dawley rat assessed as […] in time spent exploring novel object over familiar object at 0.05 mg/kg, ip pretreated for 60 mins followed by PCP addition by novel object recognition assay; assay type: functional, organism-based
Rattus norvegicus [42] = experiment: Effect on failure incidence during conditioned avoidance response test in Sprague-Dawley rat at 2 mg/kg, ip administered 60 mins prior to testing; assay type: ADME, organism-based; conditions: in vivo, 1 h

COc1cccc(OC)c1OCCNCC1COc2ccccc2O1 (stereo not given)
Kb [1]: 0.24 nM

CN1CCN(C2=Nc3cc(Cl)ccc3Nc3ccccc32)CC1 [CLOZAPINE]
minimal effective dose (Rattus norvegicus [2]): 1 mg/kg
Activity (Rattus norvegicus [3]): Non-Toxic
minimal effective dose (Rattus norvegicus [4]): 1 mg/kg
Activity (Rattus norvegicus [5]): inactive
minimal effective dose (Rattus norvegicus [6]): 1 mg/kg
MTD at 0.5 h [7]: 3 mg/kg

Cc1nc2n(c(=O)c1CCN1CCC(c3noc4cc(F)ccc34)CC1)CCCC2 [RISPERIDONE]
minimal effective dose (Rattus norvegicus [8]): 0.1 mg/kg
Activity (Rattus norvegicus [9]): Non-Toxic
minimal effective dose (Rattus norvegicus [6]): 0.1 mg/kg

O=S(=O)(c1cncc2ccccc12)N1CCC[C@@H]1CCN1CCN(c2cccc3sccc23)CC1
concentration at 0.25 h [10]: 564 nM
concentration at 1 h [11]: 114 nM
Ki [12]: 26 nM
concentration at 0.25 h [13]: 266 nM
Kp at 1 h [14]: 1.24
inhibition [15]: 78%
concentration at 1 h [16]: 96.7 nM
Kp at 0.5 h [17]: 0.48
EC50 [18]: 11 nM
concentration at 0.5 h [19]: 242 nM
Kp at 0.25 h [20]: 0.47
Kb [21]: 0.47 nM
Activity [22]: 36%
Kb [23]: 0.74 nM
Kb [24]: 9.5 nM
Activity (Rattus norvegicus [25]): inactive
inhibition [26]: 100%
inhibition [27]: 73%
inhibition [28]: 100%
Ki [29]: 24 nM
concentration at 0.5 h [30]: 518 nM
inhibition [31]: 100%
Ki [32]: 4 nM
MTD at 0.5 h [7]: 3 mg/kg

O=C1Cc2cc(CCN3CCN(c4nsc5ccccc45)CC3)c(Cl)cc2N1 [ZIPRASIDONE]
minimal effective dose (Rattus norvegicus [2]): 1 mg/kg
Activity (Rattus norvegicus [33]): Toxic
MTD at 1 h [34]: 2 mg/kg
Ki [35]: 20 nM
Activity (Rattus norvegicus [36]): Non-Toxic
minimal effective dose (Rattus norvegicus [4]): 1 mg/kg
Ki [29]: 2 nM
Activity (Rattus norvegicus [5]): inactive
minimal effective dose (Rattus norvegicus [6]): 1 mg/kg
MTD at 0.5 h [7]: 3 mg/kg

O=C(CCCN1CCC2(CC1)C(=O)NCN2c1ccccc1)c1ccc(F)cc1
inhibition [37]: 100%

O=C(CCCN1CCC(O)(c2ccc(Cl)cc2)CC1)c1ccc(F)cc1 [HALOPERIDOL]
minimal effective dose (Rattus norvegicus [2]): 0.6 mg/kg
MTD at 1 h [34]: 0.2 mg/kg
Activity (Rattus norvegicus [38]): inactive
MTD [39]: 0.2 mg/kg
Activity (Rattus norvegicus [40]): Dose-dependent effect
Activity (Rattus norvegicus [41]): inactive
minimal effective dose (Rattus norvegicus [6]): 0.1 mg/kg
MTD at 0.5 h [7]: 0.06 mg/kg

Cc1cc2c(s1)Nc1ccccc1N=C2N1CCN(C)CC1 [OLANZAPINE]
minimal effective dose (Rattus norvegicus [2]): 1.88 mg/kg
Activity (Rattus norvegicus [33]): Toxic
Activity (Rattus norvegicus [42]): Non-Toxic
MTD [39]: 40 mg/kg
minimal effective dose (Rattus norvegicus [4]): 1.25 mg/kg
minimal effective dose (Rattus norvegicus [6]): 1 mg/kg
MTD at 0.5 h [7]: 1.25 mg/kg

Reference: ChEMBL document CHEMBL4229332, “Novel multi-target azinesulfonamides of cyclic amine derivatives as potential antipsychotics with pro-social and pro-cognitive effects” (Eur J Med Chem, 2018)
